Test results: patent US9802901B2, “Antibacterial 2H-indazole derivatives” (priority 2013, dated 2017)
Converted amounts (≈) assume the structure as drawn. Where a name gives a salt, the structure may show the parent alone. Read-outs that look alike come from different tables or passages of the source.

How the values were obtained:
Test in all cases: Bacterial growth minimal inhibitory concentration (broth microdilution, CLSI M7-A7)
E. coli ATCC25922 = type: cell-based, Escherichia coli; conditions: for MIC: Escherichia coli
Procedure: (§1) Minimal Inhibitory Concentrations (MICs; mg/L) were determined in cation-adjusted Mueller-Hinton Broth by a microdilution method following the description given in “Methods for Dilution Antimicrobial Susceptibility Tests for Bacteria that Grow Aerobically”, Approved standard, 7th ed., Clinical and Laboratory Standards Institute (CLSI) Document M7-A7, Wayne, Pa., USA (2006).
(§2) All Example compounds, except the compound of Example 62, were tested against several Gram-positive and Gram-negative bacteria. […] K. pneumoniae A-651 and Acinetobacter baumannii T6474 are multiply-resistant strains (in particular quinolone-resistant), while E. coli ATCC25922 and P. aeruginosa ATCC27853 are quinolone-sensitive strains.

[1] = system: Acinetobacter baumannii T6474; type: cell-based; conditions: for MIC: Acinetobacter baumannii
Procedure: as §1, §2

K. pneumoniae A-651 = type: cell-based, Klebsiella pneumoniae; conditions: for MIC: Klebsiella pneumoniae
Procedure: as §1, §2

P. aeruginosa ATCC27853 = type: cell-based, Pseudomonas aeruginosa; conditions: for MIC: Pseudomonas aeruginosa
Procedure: as §1, §2

[2] = cation-adjusted Mueller-Hinton Broth, microdilution, quinolone-sensitive strain
[3] = cation-adjusted Mueller-Hinton Broth, microdilution, multiply-resistant (quinolone-resistant) strain
[4] = ATCC25922, cation-adjusted Mueller-Hinton Broth, microdilution, quinolone-sensitive strain, read-out: MIC for E. coli ATCC25922
[5] = T6474, cation-adjusted Mueller-Hinton Broth, microdilution, multiply-resistant (quinolone-resistant) strain, read-out: MIC for A. Baumannii T6474
[6] = A651, cation-adjusted Mueller-Hinton Broth, microdilution, multiply-resistant (quinolone-resistant) strain, read-out: MIC for K. Pneumoniae A-651
[7] = ATCC27853, cation-adjusted Mueller-Hinton Broth, microdilution, quinolone-sensitive strain, read-out: MIC for P. aeruginosa ATCC27853

SMILES | MIC (E. coli ATCC25922; [4]) | MIC [1, 5] | MIC (K. pneumoniae A-651; [6]) | MIC (P. aeruginosa ATCC27853; [7]) | other results
C[C@H](O)c1ccc(C#Cc2ccc3nn(CC[C@](C)(C(=O)NO)S(C)(=O)=O)cc3c2)cc1 [Example 34] |  |  |  |  | MIC for E. coli ATCC25922 (E. coli ATCC25922; [2]): 0.063 µg/mL; MIC for A. Baumannii T6474 [1, 3]: 1 µg/mL; MIC for K. Pneumoniae A-651 (K. pneumoniae A-651; [3]): 0.125 µg/mL; MIC for P. aeruginosa ATCC27853 (P. aeruginosa ATCC27853; [2]): 0.5 µg/mL
C[C@@](CCn1cc2cc(-c3ccc(OC(F)(F)F)cc3F)ccc2n1)(C(=O)NO)S(C)(=O)=O [Example 35, (R)-4-[5-(2-fluoro-4-trifluoromethoxy-phenyl)-indazol-2-yl]-N-hydroxy-2-methylsulfonyl-2-methyl-butanamide] | 0.125 µg/mL (≈ 0.255 µM) | 0.25 µg/mL (≈ 0.511 µM) | 0.5 µg/mL (≈ 1.02 µM) | 4 µg/mL (≈ 8.17 µM) | 
C[C@@](CCn1cc2cc(C#CC#C[C@H]3C[C@@H]3CO)ccc2n1)(C(=O)NO)S(C)(=O)=O.O=CO [Example 36, (R)—N-hydroxy-4-(5-(((1S,2S)-2-(hydroxymethyl)cyclopropyl)buta-1,3-diyn-1-yl)-2H-indazol-2-yl)-2-methyl-2-(methylsulfonyl)butanamide formate] | 0.063 µg/mL | 2 µg/mL | 0.125 µg/mL | 0.25 µg/mL | 
C[C@@](CCn1cc2cc(C#CC#C[C@@H]3C[C@H]3CO)ccc2n1)(C(=O)NO)S(C)(=O)=O.O=CO [Example 37] |  |  |  |  | MIC for E. coli ATCC25922 (E. coli ATCC25922; [2]): 0.063 µg/mL; MIC for A. Baumannii T6474 [1, 3]: 2 µg/mL; MIC for K. Pneumoniae A-651 (K. pneumoniae A-651; [3]): 0.063 µg/mL; MIC for P. aeruginosa ATCC27853 (P. aeruginosa ATCC27853; [2]): 0.25 µg/mL
C[C@@](CCn1cc2c(F)c(C#CC#CC3(O)COC3)ccc2n1)(C(=O)NO)S(C)(=O)=O [Example 38, (R)-4-{4-fluoro-5-[4-(3-hydroxy-oxetan-3-yl)-buta-1,3-diynyl]-indazol-2-yl}-N-hydroxy-2-methylsulfonyl-2-methyl-butanamide] | 0.5 µg/mL (≈ 1.11 µM) | > 32 µg/mL | 1 µg/mL (≈ 2.22 µM) | 1 µg/mL (≈ 2.22 µM) | 
C[C@@](CCn1cc2cc(C#Cc3ccc(CO)cc3F)ccc2n1)(C(=O)NO)S(C)(=O)=O [Example 39, (R)-4-[5-(2-fluoro-4-hydroxymethyl-phenylethynyl)-indazol-2-yl]-N-hydroxy-2-methylsulfonyl-2-methyl-butanamide] | 0.125 µg/mL (≈ 0.272 µM) | 0.25 µg/mL (≈ 0.544 µM) | 0.125 µg/mL (≈ 0.272 µM) | 1 µg/mL (≈ 2.18 µM) | 
CC(CCn1cc2cc(C#Cc3ccc(C4(O)COC4)cc3)c(F)cc2n1)(C(=O)NO)S(C)(=O)=O (centres unmarked) [Example 40, 4-(6-fluoro-5-((4-(3-hydroxyoxetan-3-yl)phenyl)ethynyl)-2H-indazol-2-yl)-N-hydroxy-2-methyl-2-(methylsulfonyl)butanamide] | 0.125 µg/mL (≈ 0.249 µM) | 1 µg/mL (≈ 1.99 µM) | 0.25 µg/mL (≈ 0.498 µM) | 1 µg/mL (≈ 1.99 µM) | 
C[C@@](CCn1cc2cc(C#Cc3ccc([C@@H]4C[C@H]4CO)cc3)ccc2n1)(C(=O)NO)S(C)(=O)=O [Example 41, (R)—N-hydroxy-4-(5-((4-((1R,2R)-2-(hydroxymethyl)cyclopropyl)phenyl)ethynyl)-2H-indazol-2-yl)-2-methyl-2-(methylsulfonyl)butanamide] | 0.125 µg/mL (≈ 0.26 µM) | 0.125 µg/mL (≈ 0.26 µM) | 0.063 µg/mL (≈ 0.131 µM) | 1 µg/mL (≈ 2.08 µM) | 
C[C@@](CCn1cc2cc(C#Cc3ccc([C@H]4C[C@@H]4CO)cc3)ccc2n1)(C(=O)NO)S(C)(=O)=O [Example 42, (R)—N-hydroxy-4-(5-((4-((1S,2S)-2-(hydroxymethyl)cyclopropyl)phenyl)ethynyl)-2H-indazol-2-yl)-2-methyl-2-(methylsulfonyl)butanamide] | 0.063 µg/mL (≈ 0.131 µM) | 0.125 µg/mL (≈ 0.26 µM) | 0.063 µg/mL (≈ 0.131 µM) | 0.25 µg/mL (≈ 0.519 µM) | 
C[C@@](CCn1cc2cc(C#Cc3ccc(C4(CO)COC4)cc3)ccc2n1)(C(=O)NO)S(C)(=O)=O [Example 43, (R)—N-hydroxy-4-(5-((4-(3-(hydroxymethyl)oxetan-3-yl)phenyl)ethynyl)-2H-indazol-2-yl)-2-methyl-2-(methylsulfonyl)butanamide] | 1 µg/mL (≈ 2.01 µM) | 2 µg/mL (≈ 4.02 µM) | 1 µg/mL (≈ 2.01 µM) | 2 µg/mL (≈ 4.02 µM) | 
C[C@@](CCn1cc2cc(C#Cc3ccc(OCCO)cc3)ccc2n1)(C(=O)NO)S(C)(=O)=O [Example 44, (R)—N-hydroxy-4-(5-((4-(2-hydroxyethoxy)phenyl)ethynyl)-2H-indazol-2-yl)-2-methyl-2-(methylsulfonyl)butanamide] | 0.125 µg/mL (≈ 0.265 µM) | 0.25 µg/mL (≈ 0.53 µM) | 0.25 µg/mL (≈ 0.53 µM) | 1 µg/mL (≈ 2.12 µM) | 
C[C@@](CCn1cc2cc(C#Cc3ccc(NC(=O)CO)c(F)c3)ccc2n1)(C(=O)NO)S(C)(=O)=O [Example 45, (R)-4-(5-((3-fluoro-4-(2-hydroxyacetamido)phenyl)ethynyl)-2H-indazol-2-yl)-N-hydroxy-2-methyl-2-(methylsulfonyl)butanamide] | 0.25 µg/mL (≈ 0.497 µM) | 8 µg/mL (≈ 15.9 µM) | 1 µg/mL (≈ 1.99 µM) | 1 µg/mL (≈ 1.99 µM) | 
C[C@@](O)(C#CC#Cc1ccc2nn(CC[C@](C)(C(=O)NO)S(C)(=O)=O)cc2c1)CO [Example 46, (R)-4-(5-((R)-5,6-dihydroxy-5-methylhexa-1,3-diyn-1-yl)-2H-indazol-2-yl)-N-hydroxy-2-methyl-2-(methylsulfonyl)butanamide] | 4 µg/mL (≈ 9.23 µM) | > 32 µg/mL | 8 µg/mL (≈ 18.5 µM) | 4 µg/mL (≈ 9.23 µM) | 
C[C@@](CCn1cc2cc(C#Cc3ccc(NC(=O)CO)cc3)ccc2n1)(C(=O)NO)S(C)(=O)=O [Example 47, (R)—N-hydroxy-4-(5-((4-(2-hydroxyacetamido)phenyl)ethynyl)-2H-indazol-2-yl)-2-methyl-2-(methylsulfonyl)butanamide] | 0.25 µg/mL (≈ 0.516 µM) | 1 µg/mL (≈ 2.06 µM) | 0.5 µg/mL (≈ 1.03 µM) | 1 µg/mL (≈ 2.06 µM) | 
C[C@@](CCn1cc2cc(C#CC#CC3(N)COC3)ccc2n1)(C(=O)NO)S(C)(=O)=O [Example 48, (R)-4-(5-((3-aminooxetan-3-yl)buta-1,3-diyn-1-yl)-2H-indazol-2-yl)-N-hydroxy-2-methyl-2-(methylsulfonyl)butanamide formate] |  |  |  |  | MIC (E. coli ATCC25922; ATCC25922, read-out: MIC for E. coli ATCC25922): 2 µg/mL; MIC ([1]; T6474, read-out: MIC for A. Baumannii T6474): > 32 µg/mL; MIC (K. pneumoniae A-651; A651, read-out: MIC for K. Pneumoniae A-651): 4 µg/mL; MIC (P. aeruginosa ATCC27853; ATCC27853, read-out: MIC for P. aeruginosa ATCC27853): 2 µg/mL
C[C@@](CCn1cc2cc(-c3ccc(NC(=O)CO)cc3)ccc2n1)(C(=O)NO)S(C)(=O)=O [Example 49, (R)—N-hydroxy-4-(5-(4-(2-hydroxyacetamido)phenyl)-2H-indazol-2-yl)-2-methyl-2-(methylsulfonyl)butanamide] | 4 µg/mL (≈ 8.69 µM) | > 32 µg/mL | 4 µg/mL (≈ 8.69 µM) | 4 µg/mL (≈ 8.69 µM) | 
C[C@@](CCn1cc2cc(-c3ccc(OCCO)cc3F)ccc2n1)(C(=O)NO)S(C)(=O)=O [Example 50, (R)-4-(5-(2-fluoro-4-(2-hydroxyethoxy)phenyl)-2H-indazol-2-yl)-N-hydroxy-2-methyl-2-(methylsulfonyl)butanamide] | 0.5 µg/mL (≈ 1.07 µM) | 2 µg/mL (≈ 4.3 µM) | 1 µg/mL (≈ 2.15 µM) | 2 µg/mL (≈ 4.3 µM) | 
C[C@@](CCn1cc2cc(C#Cc3ccc([C@H](O)CO)cc3)ccc2n1)(C(=O)NO)S(C)(=O)=O [Example 51, (R)-4-(5-((4-((S)-1,2-dihydroxyethyl)phenyl)ethynyl)-2H-indazol-2-yl)-N-hydroxy-2-methyl-2-(methylsulfonyl)butanamide] | 1 µg/mL (≈ 2.12 µM) | 1 µg/mL (≈ 2.12 µM) | 0.5 µg/mL (≈ 1.06 µM) | 0.5 µg/mL (≈ 1.06 µM) | 
COCCOc1ccc(-c2ccc3nn(CC[C@](C)(C(=O)NO)S(C)(=O)=O)cc3c2)cc1 [Example 52, (R)—N-hydroxy-4-(5-(4-(2-methoxyethoxy)phenyl)-2H-indazol-2-yl)-2-methyl-2-(methylsulfonyl)butanamide] | 0.125 µg/mL (≈ 0.271 µM) | 1 µg/mL (≈ 2.17 µM) | 0.5 µg/mL (≈ 1.08 µM) | 2 µg/mL (≈ 4.33 µM) | 
C[C@@](CCn1cc2cc(C#CC#C[C@H]3C[C@@H]3CO)c(F)cc2n1)(C(=O)NO)S(C)(=O)=O [Example 53, (R)-4-(6-fluoro-5-(((1S,2S)-2-(hydroxymethyl)cyclopropyl)buta-1,3-diyn-1-yl)-2H-indazol-2-yl)-N-hydroxy-2-methyl-2-(methylsulfonyl)butanamide] | ≤ 0.063 µg/mL | 2 µg/mL (≈ 4.47 µM) | 0.125 µg/mL (≈ 0.279 µM) | 0.5 µg/mL (≈ 1.12 µM) | 
